Test results reported in the kinase profiling compilation of Christmann-Franck et al. (2016).
One block for each compound: values may come before it.

Key:
Assay in all cases: radiometric filter-binding kinase assay, Kinase HotSpot
Details in all cases: compound 0.5 µM; ATP 10 µM
[1] = target: TXK (human) (UniProt P42681)
[2] = target: MAPK12 (human) (UniProt P53778)
[3] = target: SGK2 (human) (UniProt Q9HBY8)
[4] = target: NEK4 (human) (UniProt P51957)
[5] = target: AKT3 (human) (UniProt Q9Y243)
[6] = target: EPHA7 (human) (UniProt Q15375)
[7] = target: ACVR1 (human) (UniProt Q04771)
[8] = target: BRSK1 (human) (UniProt Q8TDC3)
[9] = target: CDK4 CCND3 (human) (UniProt P30281+P11802)
[10] = target: PDGFRB (human) (UniProt P09619)
[11] = target: RPS6KA4 KD2 (human) (UniProt O75676)
[12] = target: MAPKAPK5 (human) (UniProt Q8IW41)
[13] = target: SRPK1 (human) (UniProt Q96SB4)
[14] = target: RPS6KA1 KD1 KD2 (human) (UniProt Q15418)
[15] = target: RPS6KA6 KD1 KD2 (human) (UniProt Q9UK32)
[16] = target: GRK5 (human) (UniProt P34947)
[17] = target: ABL1 (human) (UniProt P00519)
[18] = target: CSNK2A1 (human) (UniProt P68400)
[19] = target: MAPK1 (human) (UniProt P28482)
[20] = target: DCLK2 (human) (UniProt Q8N568)
[21] = target: NEK6 (human) (UniProt Q9HC98)
[22] = target: BLK (human) (UniProt P51451)
[23] = target: TGFBR1 (human) (UniProt P36897)
[24] = target: TYRO3 (human) (UniProt Q06418)
[25] = target: CDK9 CCNT1 (human) (UniProt P50750+O60563)
[26] = target: IKBKB (human) (UniProt O14920)
[27] = target: PRKCH (human) (UniProt P24723)
[28] = target: NEK1 (human) (UniProt Q96PY6)
[29] = target: ADRBK2 (human) (UniProt P35626)
[30] = target: SRPK3 (human) (UniProt Q9UPE1)
[31] = target: CDK6 CCND1 (human) (UniProt Q00534+P24385)
[32] = target: FGR (human) (UniProt P09769)
[33] = target: DYRK4 (human) (UniProt Q9NR20)
[34] = target: SRMS (human) (UniProt Q9H3Y6)
[35] = target: STK3 (human) (UniProt Q13188)
[36] = target: CAMK1G (human) (UniProt Q96NX5)
[37] = target: CDK1 CCNB1 (human) (UniProt P06493+P14635)
[38] = target: CSNK1G1 (human) (UniProt Q9HCP0)
[39] = target: DYRK1B (human) (UniProt Q9Y463)
[40] = target: DAPK1 (human) (UniProt P53355)
[41] = target: EPHA5 (human) (UniProt P54756)

Sequence of SRPK1 (human) (Q96SB4 whole entry, looked up): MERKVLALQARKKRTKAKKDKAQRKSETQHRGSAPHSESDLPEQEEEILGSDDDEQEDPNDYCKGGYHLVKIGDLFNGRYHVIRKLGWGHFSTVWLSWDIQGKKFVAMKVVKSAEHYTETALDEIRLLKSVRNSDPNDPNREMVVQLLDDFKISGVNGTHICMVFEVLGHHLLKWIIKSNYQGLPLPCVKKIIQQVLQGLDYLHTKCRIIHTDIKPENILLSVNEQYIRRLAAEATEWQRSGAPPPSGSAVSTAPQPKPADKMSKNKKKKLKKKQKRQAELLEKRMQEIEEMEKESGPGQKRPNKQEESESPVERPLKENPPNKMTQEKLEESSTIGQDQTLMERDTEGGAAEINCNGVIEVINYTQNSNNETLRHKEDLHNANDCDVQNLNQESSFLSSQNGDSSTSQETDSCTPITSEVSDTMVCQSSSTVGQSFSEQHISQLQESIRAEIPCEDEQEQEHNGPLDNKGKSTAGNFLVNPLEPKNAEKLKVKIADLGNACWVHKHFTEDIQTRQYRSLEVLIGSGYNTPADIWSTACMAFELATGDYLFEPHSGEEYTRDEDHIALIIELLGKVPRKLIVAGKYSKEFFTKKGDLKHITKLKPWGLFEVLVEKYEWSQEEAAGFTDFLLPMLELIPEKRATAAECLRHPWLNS
Sequence of TGFBR1 (human) (P36897 whole entry, looked up): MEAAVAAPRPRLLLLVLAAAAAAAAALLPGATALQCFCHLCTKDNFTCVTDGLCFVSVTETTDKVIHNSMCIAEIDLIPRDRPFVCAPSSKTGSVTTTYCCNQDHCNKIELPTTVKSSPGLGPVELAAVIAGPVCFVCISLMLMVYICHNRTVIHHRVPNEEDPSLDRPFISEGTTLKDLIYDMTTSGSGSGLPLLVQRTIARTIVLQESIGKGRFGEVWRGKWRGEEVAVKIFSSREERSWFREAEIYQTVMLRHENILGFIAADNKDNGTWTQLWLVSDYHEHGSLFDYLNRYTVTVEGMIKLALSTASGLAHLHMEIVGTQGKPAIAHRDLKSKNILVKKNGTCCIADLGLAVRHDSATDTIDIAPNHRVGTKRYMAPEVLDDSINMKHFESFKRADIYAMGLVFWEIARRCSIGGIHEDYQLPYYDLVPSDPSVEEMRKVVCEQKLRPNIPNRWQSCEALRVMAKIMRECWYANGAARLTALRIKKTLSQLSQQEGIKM
Sequence of BLK (human) (P51451 whole entry, looked up): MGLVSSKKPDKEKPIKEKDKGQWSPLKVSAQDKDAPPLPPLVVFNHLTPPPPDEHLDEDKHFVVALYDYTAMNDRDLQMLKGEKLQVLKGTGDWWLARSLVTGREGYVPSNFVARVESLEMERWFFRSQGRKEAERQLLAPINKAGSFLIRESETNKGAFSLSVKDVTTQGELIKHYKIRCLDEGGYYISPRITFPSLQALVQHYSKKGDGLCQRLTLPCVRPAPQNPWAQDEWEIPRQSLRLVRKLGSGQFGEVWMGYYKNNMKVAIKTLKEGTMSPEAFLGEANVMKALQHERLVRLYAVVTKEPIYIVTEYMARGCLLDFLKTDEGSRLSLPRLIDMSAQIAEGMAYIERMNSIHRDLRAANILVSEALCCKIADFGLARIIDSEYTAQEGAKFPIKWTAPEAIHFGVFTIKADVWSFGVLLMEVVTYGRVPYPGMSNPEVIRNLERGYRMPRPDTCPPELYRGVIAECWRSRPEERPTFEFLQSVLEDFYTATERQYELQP
Sequence of ADRBK2 (human) (P35626 whole entry, looked up): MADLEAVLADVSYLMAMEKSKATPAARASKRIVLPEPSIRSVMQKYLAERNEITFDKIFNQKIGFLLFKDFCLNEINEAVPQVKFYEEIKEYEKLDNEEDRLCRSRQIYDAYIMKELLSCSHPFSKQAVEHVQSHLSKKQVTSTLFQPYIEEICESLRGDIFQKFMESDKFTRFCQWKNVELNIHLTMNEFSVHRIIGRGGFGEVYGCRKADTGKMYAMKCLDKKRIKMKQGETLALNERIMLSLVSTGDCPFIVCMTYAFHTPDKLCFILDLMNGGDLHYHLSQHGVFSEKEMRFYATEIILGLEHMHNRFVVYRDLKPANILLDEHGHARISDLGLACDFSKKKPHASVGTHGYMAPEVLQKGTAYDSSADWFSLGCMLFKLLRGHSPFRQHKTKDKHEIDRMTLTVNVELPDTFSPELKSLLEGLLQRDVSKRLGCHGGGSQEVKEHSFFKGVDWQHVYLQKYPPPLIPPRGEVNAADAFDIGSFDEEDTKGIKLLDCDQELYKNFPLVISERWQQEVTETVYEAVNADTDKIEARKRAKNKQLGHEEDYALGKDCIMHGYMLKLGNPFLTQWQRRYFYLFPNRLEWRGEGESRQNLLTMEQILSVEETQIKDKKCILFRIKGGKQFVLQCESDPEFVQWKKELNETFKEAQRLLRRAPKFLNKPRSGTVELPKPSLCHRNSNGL
Sequence of RPS6KA4 KD2 (human) (O75676 whole entry, looked up): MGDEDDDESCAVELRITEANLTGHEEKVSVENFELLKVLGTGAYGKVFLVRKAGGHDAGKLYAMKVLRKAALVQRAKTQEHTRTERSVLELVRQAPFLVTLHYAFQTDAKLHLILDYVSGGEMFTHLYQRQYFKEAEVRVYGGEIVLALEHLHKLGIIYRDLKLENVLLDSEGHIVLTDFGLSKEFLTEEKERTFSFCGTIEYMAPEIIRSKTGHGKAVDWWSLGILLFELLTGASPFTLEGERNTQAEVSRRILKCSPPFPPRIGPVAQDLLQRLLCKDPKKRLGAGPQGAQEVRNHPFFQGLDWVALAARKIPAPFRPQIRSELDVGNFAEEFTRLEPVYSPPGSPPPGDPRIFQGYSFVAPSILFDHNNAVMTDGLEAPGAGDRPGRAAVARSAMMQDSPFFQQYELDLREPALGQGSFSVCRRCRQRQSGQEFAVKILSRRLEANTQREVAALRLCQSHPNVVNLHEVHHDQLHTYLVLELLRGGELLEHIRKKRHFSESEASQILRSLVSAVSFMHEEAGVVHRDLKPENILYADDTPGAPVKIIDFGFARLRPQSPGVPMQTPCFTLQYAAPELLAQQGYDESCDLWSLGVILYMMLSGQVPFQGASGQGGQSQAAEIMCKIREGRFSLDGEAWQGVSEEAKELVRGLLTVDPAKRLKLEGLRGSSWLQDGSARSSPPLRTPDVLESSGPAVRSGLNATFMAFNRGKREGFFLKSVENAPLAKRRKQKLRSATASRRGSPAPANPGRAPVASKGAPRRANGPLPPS
Sequence of IKBKB (human) (O14920 whole entry, looked up): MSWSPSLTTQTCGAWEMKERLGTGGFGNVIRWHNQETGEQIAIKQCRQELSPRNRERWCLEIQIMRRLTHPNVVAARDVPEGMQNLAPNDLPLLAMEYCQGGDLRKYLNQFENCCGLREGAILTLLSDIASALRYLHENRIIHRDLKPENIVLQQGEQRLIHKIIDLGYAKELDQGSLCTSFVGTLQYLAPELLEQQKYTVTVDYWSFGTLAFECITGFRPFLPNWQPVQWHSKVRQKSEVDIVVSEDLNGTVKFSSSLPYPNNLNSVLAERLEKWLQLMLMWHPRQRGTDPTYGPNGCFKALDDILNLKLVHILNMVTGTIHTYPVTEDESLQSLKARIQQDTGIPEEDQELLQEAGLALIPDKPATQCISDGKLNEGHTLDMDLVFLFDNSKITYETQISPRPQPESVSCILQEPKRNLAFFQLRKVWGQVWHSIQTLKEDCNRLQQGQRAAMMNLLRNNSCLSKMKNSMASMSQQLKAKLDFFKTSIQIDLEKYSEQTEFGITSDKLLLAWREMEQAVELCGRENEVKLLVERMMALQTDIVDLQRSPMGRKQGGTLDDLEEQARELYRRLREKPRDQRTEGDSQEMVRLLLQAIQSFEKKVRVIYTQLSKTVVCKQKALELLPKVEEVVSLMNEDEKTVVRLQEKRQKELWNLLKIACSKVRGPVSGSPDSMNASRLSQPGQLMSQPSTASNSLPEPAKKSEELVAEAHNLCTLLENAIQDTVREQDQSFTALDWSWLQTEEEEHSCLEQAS
Sequence of CDK6 CCND1 (human) (P24385 whole entry, looked up): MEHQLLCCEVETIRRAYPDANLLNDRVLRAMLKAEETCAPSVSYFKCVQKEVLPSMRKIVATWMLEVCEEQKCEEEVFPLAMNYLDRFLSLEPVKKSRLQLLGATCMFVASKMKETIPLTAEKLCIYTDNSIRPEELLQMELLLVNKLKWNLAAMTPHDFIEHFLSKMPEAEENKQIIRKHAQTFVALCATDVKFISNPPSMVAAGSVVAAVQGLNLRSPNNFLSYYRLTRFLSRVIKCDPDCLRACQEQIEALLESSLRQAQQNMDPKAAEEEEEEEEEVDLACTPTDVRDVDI
Sequence of CDK6 CCND1 (human) (Q00534 whole entry, looked up): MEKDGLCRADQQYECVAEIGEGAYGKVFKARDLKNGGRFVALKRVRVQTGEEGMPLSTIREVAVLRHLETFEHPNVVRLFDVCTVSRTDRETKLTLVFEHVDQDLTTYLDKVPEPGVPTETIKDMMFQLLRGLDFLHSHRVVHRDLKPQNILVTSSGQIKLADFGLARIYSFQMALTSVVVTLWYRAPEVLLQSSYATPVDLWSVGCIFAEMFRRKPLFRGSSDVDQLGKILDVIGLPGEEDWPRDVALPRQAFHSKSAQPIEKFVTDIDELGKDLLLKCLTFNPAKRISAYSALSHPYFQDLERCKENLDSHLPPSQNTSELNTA
Sequence of MAPK1 (human) (P28482 whole entry, looked up): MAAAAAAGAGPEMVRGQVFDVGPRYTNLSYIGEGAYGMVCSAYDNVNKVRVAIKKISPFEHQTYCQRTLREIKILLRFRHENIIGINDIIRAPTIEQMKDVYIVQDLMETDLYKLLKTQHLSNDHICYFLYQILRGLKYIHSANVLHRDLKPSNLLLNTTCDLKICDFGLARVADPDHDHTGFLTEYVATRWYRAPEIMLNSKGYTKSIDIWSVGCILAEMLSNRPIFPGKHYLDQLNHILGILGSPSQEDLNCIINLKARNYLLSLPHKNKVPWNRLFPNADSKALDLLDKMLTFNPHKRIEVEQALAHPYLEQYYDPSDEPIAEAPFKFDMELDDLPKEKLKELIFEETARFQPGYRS

- residual activity [1]: 46.4%
- residual activity [2]: 85.2%
- residual activity [3]: 92.8%
- residual activity [4]: 85.6%
- residual activity [5]: 95.1%
- residual activity [6]: 97.9%
- residual activity [7]: 102%
- residual activity [8]: 43.5%
- residual activity [9]: 86.2%
- residual activity [10]: 51.6%
- residual activity [11]: 97.6%
- residual activity [12]: 94.9%
- residual activity [13]: 96.7%
- residual activity [14]: 69%
- residual activity [15]: 70%
- residual activity [16]: 104%
- residual activity [17]: 43.1%
- residual activity [18]: 81.8%
- residual activity [19]: 87.9%
- residual activity [20]: 90.2%
- residual activity [21]: 100%
- residual activity [22]: 25.6%
- residual activity [23]: 101%
- residual activity [24]: 69.8%
- residual activity [25]: 91.5%
- residual activity [26]: 92.4%
- residual activity [27]: 95.4%
- residual activity [28]: 94.7%
- residual activity [29]: 95.7%
- residual activity [30]: 93.9%
- residual activity [31]: 53.2%
- residual activity [32]: 14.8%
- residual activity [33]: 96.7%
- residual activity [34]: 98%
- residual activity [35]: 39.5%
- residual activity [36]: 101%
- residual activity [37]: 79.3%
- residual activity [38]: 93.9%
- residual activity [39]: 96%
- residual activity [40]: 86.8%
- residual activity [41]: 102%
Compound: CC(=O)O/N=C1\C(=C2\C(=O)Nc3cc(Br)ccc32)Nc2ccccc21

Compound: Nc1nnc2[nH]c3ccccc3nc1-2
- residual activity [1]: 97.6%
- residual activity [2]: 100%
- residual activity [3]: 90.3%
- residual activity [4]: 97.8%
- residual activity [5]: 95.3%
- residual activity [6]: 95.3%
- residual activity [7]: 94.3%
- residual activity [8]: 91.5%
- residual activity [9]: 94.8%
- residual activity [10]: 98.1%
- residual activity [11]: 79%
- residual activity [12]: 82.7%
- residual activity [13]: 101%
- residual activity [14]: 97.9%
- residual activity [15]: 94.2%
- residual activity [16]: 101%
- residual activity [17]: 91.6%
- residual activity [18]: 87.6%
- residual activity [19]: 100%
- residual activity [20]: 94.6%
- residual activity [21]: 95.5%
- residual activity [22]: 96.6%
- residual activity [23]: 98.1%
- residual activity [24]: 101%
- residual activity [25]: 81.6%
- residual activity [26]: 102%
- residual activity [27]: 87.9%
- residual activity [28]: 91.7%
- residual activity [29]: 92.4%
- residual activity [30]: 95.6%
- residual activity [31]: 105%
- residual activity [32]: 96.3%
- residual activity [33]: 89.2%
- residual activity [34]: 88.5%
- residual activity [35]: 88.9%
- residual activity [36]: 97.9%
- residual activity [37]: 79.6%
- residual activity [38]: 99%
- residual activity [39]: 96%
- residual activity [40]: 91.5%
- residual activity [41]: 90.3%

Compound: Cn1nc2c3c(cccc31)C(=O)c1ccccc1-2
- residual activity [1]: 92%
- residual activity [2]: 93.8%
- residual activity [3]: 98.9%
- residual activity [4]: 89.8%
- residual activity [5]: 102%
- residual activity [6]: 104%
- residual activity [7]: 110%
- residual activity [8]: 92.5%
- residual activity [9]: 92.4%
- residual activity [10]: 100%
- residual activity [11]: 105%
- residual activity [12]: 94.5%
- residual activity [13]: 99.7%
- residual activity [14]: 93.7%
- residual activity [15]: 90.4%
- residual activity [16]: 93.8%
- residual activity [17]: 99.1%
- residual activity [18]: 90.2%
- residual activity [19]: 91.7%
- residual activity [20]: 94.2%
- residual activity [21]: 108%
- residual activity [22]: 106%
- residual activity [23]: 93.7%
- residual activity [24]: 99.8%
- residual activity [25]: 94.7%
- residual activity [26]: 103%
- residual activity [27]: 94.3%
- residual activity [28]: 78.3%
- residual activity [29]: 93.6%
- residual activity [30]: 96.3%
- residual activity [31]: 88%
- residual activity [32]: 93.4%
- residual activity [33]: 91.2%
- residual activity [34]: 104%
- residual activity [35]: 88.4%
- residual activity [36]: 95.5%
- residual activity [37]: 108%
- residual activity [38]: 102%
- residual activity [39]: 93.1%
- residual activity [40]: 86.4%
- residual activity [41]: 126%

Compound: COc1ccc(OC)c2c(=S)c3ccccc3[nH]c12
- residual activity [1]: 101%
- residual activity [2]: 98.1%
- residual activity [3]: 96.5%
- residual activity [4]: 87.7%
- residual activity [5]: 92%
- residual activity [6]: 89.7%
- residual activity [7]: 99.2%
- residual activity [8]: 93.7%
- residual activity [9]: 95.5%
- residual activity [10]: 98.1%
- residual activity [11]: 93.5%
- residual activity [12]: 109%
- residual activity [13]: 99.9%
- residual activity [14]: 94.6%
- residual activity [15]: 85.2%
- residual activity [16]: 108%
- residual activity [17]: 91.7%
- residual activity [18]: 100%
- residual activity [19]: 91.5%
- residual activity [20]: 94.6%
- residual activity [21]: 101%
- residual activity [22]: 96.5%
- residual activity [23]: 99.1%
- residual activity [24]: 97.1%
- residual activity [25]: 98.8%
- residual activity [26]: 103%
- residual activity [27]: 86.2%
- residual activity [28]: 102%
- residual activity [29]: 86.5%
- residual activity [30]: 96.8%
- residual activity [31]: 102%
- residual activity [32]: 90.8%
- residual activity [33]: 107%
- residual activity [34]: 83.5%
- residual activity [35]: 104%
- residual activity [36]: 99.5%
- residual activity [37]: 97.8%
- residual activity [38]: 120%
- residual activity [39]: 107%
- residual activity [40]: 106%
- residual activity [41]: 114%

Compound: Cn1sc(=O)n(Cc2ccccc2)c1=O
- residual activity [1]: 99.8%
- residual activity [2]: 102%
- residual activity [3]: 100%
- residual activity [4]: 98%
- residual activity [5]: 96.6%
- residual activity [6]: 105%
- residual activity [7]: 102%
- residual activity [8]: 102%
- residual activity [9]: 114%
- residual activity [10]: 87.3%
- residual activity [11]: 99%
- residual activity [12]: 94.2%
- residual activity [13]: 89.8%
- residual activity [14]: 97.6%
- residual activity [15]: 104%
- residual activity [16]: 93.6%
- residual activity [17]: 104%
- residual activity [18]: 95.4%
- residual activity [19]: 93.1%
- residual activity [20]: 98.5%
- residual activity [21]: 102%
- residual activity [22]: 101%
- residual activity [23]: 97.2%
- residual activity [24]: 99.9%
- residual activity [25]: 94.2%
- residual activity [26]: 112%
- residual activity [27]: 89%
- residual activity [28]: 102%
- residual activity [29]: 99.6%
- residual activity [30]: 97.3%
- residual activity [31]: 106%
- residual activity [32]: 101%
- residual activity [33]: 99.3%
- residual activity [34]: 96.2%
- residual activity [35]: 93.2%
- residual activity [36]: 117%
- residual activity [37]: 95.7%
- residual activity [38]: 95.2%
- residual activity [39]: 103%
- residual activity [40]: 97.9%
- residual activity [41]: 103%
